Format in all cases: cell-based
Assay [1] concerns the target T1, CRAC channel (Homo sapiens, UniProt Q13586). Kind of assay: CRAC channel activity by Fura-2 fluorescence in Jurkat cells after thapsigargin. Set-up: endogenous in cells; host or cells: Jurkat cells. The settings on record: 100 uM, 10 minutes before thapsigargin. The method, then: Ratiometric imaging of intracellular Ca^2+ using fura-2 was as described (see, Zhou et al., 2009 above). Briefly, cells on coverslips, in cation safe solution (107 mM NaCl, 7.2 mM KCl, 1.2 mM MgCl2, 11.5 mM glucose, 20 mM HEPES-NaOH, pH 7.2) were loaded with fura-2 acetoxymethyl ester (2 μM) for 30 min at 24° C. Cells were washed and fluorescent probe was allowed to de-esterify for 30 min. From signal remaining after saponin permeabilization, ˜85% of the dye was confined to the cytoplasm (see, Ma H-T, Patterson R L. van Rossum D B. Birnbaumer L, Mikoshiba K, Gill D L, “Requirement of the inositol trisphosphate receptor for activation of store-operated Ca^2+ channels”, Science, Vol. 287, pages 1647-1651, 2000). Ca^2+ measurements were made using a Leica DMI 6000B fluorescence microscope controlled by Slidebook Software. Fluorescence emission at 505 nm was monitored while alternating between 340 and 380 nm excitation wavelengths at a frequency of 0.67 Hz; intracellular Ca^2+ measurements are shown as 340/380 nm emission ratios obtained from groups (35-45) of single cells. Measurements shown are representative a minimum of three independent experiments.
N-(3,4-dibromophenyl)propanamide]. Jurkat cells, a T cell line that is very sensitive to DCPA, was cultured with the indicated compounds, DCPA, DBPA, and ethanol (EtOH). CRAC channel activity was monitored using Fura-2 fluorescence using standard known techniques. Cells were incubated in each composition at 100 uM for 10 minutes prior to addition of the SERCA inhibitor thapsigargin (Tg) to induce SOCe. Decreased CRAC channel activity is clearly evident with DCPA and DBPA.
Jurkat cells, a T cell line that is very sensitive to DCPA, was cultured with the indicated compositions of the present invention, namely, DNI, NM Propanil, and DNMNI. CRAC channel activity was monitored using Fura-2 fluorescence using standard known techniques. Cells were incubated in each composition at 100 uM for 10 minutes prior to addition of the SERCA inhibitor thapsigargin (Tg) to induce SOCe. Decreased CRAC channel activity is clearly evident with each of the compositions of the present invention. […] Each of the compositions of this invention achieve the results achieved with the known DCPA but without the burden of toxicity of DCPA that would accompany further metabolism of DCPA.

In assay [2] the target is T1, CRAC channel. Kind of assay: CRAC channel activity as measured by intracellular calcium influx. Particulars: for effect on intracellular calcium influx and toxicity in relation to CRAC channel inhibition: DCPA metabolites. From the text: The metabolism of DCPA by acylamidase produces DCA as mentioned above. DCA is then metabolized to N—OH-DCA and 6-OH-DCA. Both N—OH-DCA and 6-OH-DCA contribute to the systemic toxicity associated with in vivo administration of DCPA. […] Thus, the CRAC channel inhibitory activity of DCPA is not attributable to any of these toxic metabolites. Given that the CRAC channel inhibition associated with DCPA was not due to the more toxic metabolites, the present invention discloses haloanilide compositions of Formula I, and salts thereof that are not metabolized to DCA but that have similar CRAC channel inhibitory qualities of DCPA:
[drawing 7] wherein X is either chlorine or bromine, Y is either hydrogen or an alkyl group having a carbon chain length from 1 to 5 carbon atoms, and R is an alkyl group having a carbon chain length from 1 to 5 carbon atoms, except wherein X is not chlorine when Y is hydrogen and R is an ethyl group. Synthesis routes for N-(3,4-dibromophenyl)propanamide [also referred to as “DBPA” or “N-(3,4-bibromophenyl)propionamide”], N-(3,4-dichlorophenyl)-N-methylpropanamide [also referred to as “N-Methyl Propanil”; or “N-Methyl-DCPA”; or “NMP”; or “NM Propanil”; or “N-(3,4-dichlorophenyl)-N-methylpropionamide”; or “N,N-Methyl, Propyl-CA” (CA=carboxamide)], 3,4-dichloro-N-methyl-N-isobutyramide [also referred to as “N-(3,4-dichlorophenyl)-N,2-dimethylpropanamide”; or “DNMI”], N-(3,4-dichlorophenyl)-2-dimethylpropanamide, N-(3,4-dichlorophenyl)isobutyramide [also referred to as “DNI” or “N-Isobutyl-CA” (CA=carboxamide)], and N-(3,4-dichlorophenyl)-N-methylisobutyramide [also referred to as “N,N-Me, Isobutyl-CA” (CA=carboxamide)]. Each of the haloanilide compositions of this invention have undergone in vitro toxicity testing on Jurkat cells—this is a T cell line that is sensitivity to toxic effects and thus, was used to determine the effect of the compounds on viability. Each of the compositions of Formula I are capable of inhibiting CRAC channel activity as measured by intracellular calcium influx. […] FIGS. 4 and 5 show chemical structures of preferred haloanilide compositions of this invention.
A general note: Calcium flux is commonly read through the fluorescence of an indicator in the cells.

Assay [3] has as its system Store-Operated Calcium Entry (SOCE). The experiment in a line: Store-Operated Calcium Entry (SOCE) inhibition dose response (FIG. 10).
Assay [4] has as its target T2, STIM I/Orai I interaction (Homo sapiens, UniProt Q13586).
T2 construct: the cytosolic fragment of STIM I (STIM 1 ct); expressed in transfected cells
The experiment in a line: 2-APB-induced STIM I ct translocation to plasma membrane. The settings on record: 2-APB 50 μM, as early as 5 seconds.
Method: HEK293 cells, maintained in DMEM with 10% FBS, were transfected with YFP-STIM I using Lipofectamine 2000 (Invitrogen, Carlsbad, Calif.) for 5 h (37° C.; 5% CO2) followed by a 24-h recovery. Cells were placed in 140 mM NaCl, 5 mM KCl, 1 mM MgCl2, 10 mM glucose, 15 mM HEPES, 0.1% BSA, 2 mM CaCl2 and analyzed by confocal microscopy for STIM I puncta formation using a Nikon phase-fluorescence microscope with CCD detectors (Diagnostic instruments, Sterling Heights, Mich.). Phase or transmitted light microscopy used 10-40× objectives and red, green, and blue filters to assemble color images. Fluorescence images used 1.4 NA 40× oil objectives. Red fluorescence used excitation at 530-560 nm, a 575 nm dichroic minor, and 580-650 nm emission filter. Transfection data were analyzed using Nikon NIS Elements Imaging Software. The effect of DCPA on STIM I/Orai I association was determined in wild-type HEK293 cells transfected with STIM I-YFP as described in Wang Y, Deng X, Zhou Y, Hendron E, Mancarelia S, Ritchie M F, Tang X D, Baba Y, Kurosaki T, Mori Y, Soboloff J, Gill DL, “STIM protein coupling in the activation of Orai channels”, Proc Natl Acad Sci USA, Vol. 106, pages 7391-7396, 2009. Experiments were performed on a Leica DMI 6000B fluorescence microscope controlled by Slidebook Software (Intelligent Imaging Innovations, Denver, Colo.).

For assay [5], the system named is human monocytes differentiating into osteoclasts. Kind of assay: Human osteoclast differentiation in vitro (multinucleation, TRAP). The settings on record: 10 and 100 μM, 8 days after RANKL. The method, then:
Human monocytes were isolated from normal buffy coat cells (60-80 ml) obtained with approval of institutional review boards by separation from donor blood, the white-cell depleted blood retained for clinical use. Human monocyte culture and differentiation were as reported (see, Yaroslayskly B B, Zhang Y, Kalla S E, Garcia P V, Sharrow A C, Li Y, Zaidi M, Wu C, Blair H C, “NO-dependent osteoclast motility: Reliance on cGMP-dependent protein kinase I and VASP”, J Cell Sci I, Vol. 18, pages 5479-5487, 2005). Briefly, human monocytes cells were isolated from buffy coat on ficoll lymphocyte separation media and cultured at ˜6×10^5 cells per cm^2 in monocyte maintenance medium, Dulbecco's modified essential medium (DMEM) with 20 ng/ml of human m-CSF and 10% FBS, for 24 hours (h). After 24 h in culture, the medium was changed to osteoclast differentiation medium containing in addition of human 50 ng/ml of RANKL, with the additional inhibitors or activators as specified in results. Human osteoclast cultures were generally maintained for a minimum of 7 days before analysis, or longer times as specified in results.
The effect of DCPA on human osteoclast differentiation 8 days after addition of RANKL was evaluated.

Molecules are shown by their SMILES.

Here are results for nine compounds from patent publication US10682320B2, “Method for inhibiting osteoclast development” (West Virginia University, priority 2012, dated 2020).

The IC50 is the concentration at which inhibition is half-maximal.

T1 sequence (Q13586 23-685): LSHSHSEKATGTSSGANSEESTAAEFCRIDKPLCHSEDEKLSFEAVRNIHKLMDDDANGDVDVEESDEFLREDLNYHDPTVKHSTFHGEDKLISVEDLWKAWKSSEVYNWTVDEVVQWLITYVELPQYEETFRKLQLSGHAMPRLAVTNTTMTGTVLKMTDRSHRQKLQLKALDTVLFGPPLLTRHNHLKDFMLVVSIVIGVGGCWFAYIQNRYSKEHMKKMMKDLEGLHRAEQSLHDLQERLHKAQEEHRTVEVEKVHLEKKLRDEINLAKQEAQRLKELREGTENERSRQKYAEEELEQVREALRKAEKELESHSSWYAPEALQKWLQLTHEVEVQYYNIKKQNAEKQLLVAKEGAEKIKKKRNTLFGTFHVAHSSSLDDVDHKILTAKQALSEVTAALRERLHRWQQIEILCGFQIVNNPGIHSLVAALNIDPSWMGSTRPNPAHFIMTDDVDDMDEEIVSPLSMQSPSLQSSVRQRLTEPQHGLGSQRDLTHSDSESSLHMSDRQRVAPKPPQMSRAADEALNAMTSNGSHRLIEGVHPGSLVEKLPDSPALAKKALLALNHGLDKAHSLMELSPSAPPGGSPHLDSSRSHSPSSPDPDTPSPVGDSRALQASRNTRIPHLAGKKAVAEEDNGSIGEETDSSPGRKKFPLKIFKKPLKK
T2 sequence (Q13586 235-685 limits assumed): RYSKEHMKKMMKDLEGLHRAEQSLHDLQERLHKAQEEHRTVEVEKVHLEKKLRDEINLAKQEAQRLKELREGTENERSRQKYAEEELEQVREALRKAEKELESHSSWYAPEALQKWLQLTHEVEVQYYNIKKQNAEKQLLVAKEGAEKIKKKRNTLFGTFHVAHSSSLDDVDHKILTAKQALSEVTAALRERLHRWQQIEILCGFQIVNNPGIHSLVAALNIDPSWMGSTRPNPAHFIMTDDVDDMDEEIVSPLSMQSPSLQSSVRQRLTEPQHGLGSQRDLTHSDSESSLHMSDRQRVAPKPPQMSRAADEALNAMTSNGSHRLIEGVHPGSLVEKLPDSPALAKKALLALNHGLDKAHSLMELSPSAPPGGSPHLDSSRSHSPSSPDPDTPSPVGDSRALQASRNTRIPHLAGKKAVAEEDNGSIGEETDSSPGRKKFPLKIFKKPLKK

Regarding `CCC(=O)N(C)c1ccc(Cl)c(Cl)c1` [NMP, N-(3,4-dichlorophenyl)-N-methylpropanamide], the CRAC channel activity entry on CRAC channel [1] is on record as “Decreased”. Moreover, the “inhibition of CRAC channel activity as measured by intracellular calcium influx” value at CRAC channel [2] is on record as “effective at lower concentrations”. Also, the IC50 in assay [3] (FIG. 10B) came out at 104 µM. The “dose response compared with known DCPA” value in assay [3] (doses 3 μM to 1 mM, FIG. 10A) is “at least equal”. Take `CC(C)C(=O)N(C)c1ccc(Cl)c(Cl)c1` [DNMNI, N-(3,4-dichlorophenyl)-N-methylisobutyramide]: on CRAC channel [1], the CRAC channel activity result was “Decreased”. Turning to `Nc1cc(Cl)c(Cl)cc1O` [6-OH-DCA], the “effect on intracellular calcium influx and toxicity in relation to CRAC channel inhibition” value on CRAC channel [2] was “not associated with CRAC channel inhibition”. As for `CCC(=O)Nc1ccc(Br)c(Br)c1` [DBPA, N-(3,4-dibromophenyl)propanamide], on CRAC channel [1], the CRAC channel activity entry is “Decreased”. Regarding `NCCOB(c1ccccc1)c1ccccc1` [2-APB, 2-aminoethoxydiphenylborate], the “translocation of STIM I ct towards the PM” value in assay [4] is “significant translocation”.

As for `CC(C)C(=O)Nc1ccc(Cl)c(Cl)c1` [DNI, N-(3,4-dichlorophenyl)isobutyramide], on CRAC channel [1], the CRAC channel activity result was “Decreased”. As to `CCC(=O)Nc1ccc(F)c(F)c1` [DFPA, 3,4-difluoropropioanilide], in assay [5], the “number of multinucleated cells” value is “no significant effect”. Take `Nc1ccc(Cl)c(Cl)c1` [DCA, dichloroaniline]: the “effect on intracellular calcium influx and toxicity in relation to CRAC channel inhibition” value on CRAC channel [2] was “not associated with CRAC channel inhibition”. Same read-out and setting: the same measure for `ONc1ccc(Cl)c(Cl)c1` [N—OH-DCA]: “not associated with CRAC channel inhibition”.
